Experimental data published in patent publication US10160747B2, “Compounds and methods for kinase modulation, and indications therefor” (Plexxikon Inc., priority 2016, dated 2018).

How the values were obtained:
[1] = test system: MOLM-14 F691L (endogenous FLT3 ITD and transfected FLT3 F691L); experiment: MOLM-14 F691L cell proliferation assay (CellTiter-Glo); type: cell-based; settings: Homo sapiens, MOLM-14, 72 h; 3 d growth, GMean
Method in brief: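 MOLM-14 cells (FLT3 ITD) carrying D835Y or F691L, 1×10^4 cells/well, eight 1:3 dilutions from 1 μM final, 0.2% DMSO, 3 days at 37 °C, 5% CO2. Viability by CellTiter-Glo luminescence (ATP content); IC50 from concentration-response.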

CSF1R = CSF1R (Homo sapiens, UniProt P07333); experiment: CSF1R 100 ATP 8 pt kinase assay (Table 6); type: biochemical
Chain of CSF1R (P07333 20-972, species assumed): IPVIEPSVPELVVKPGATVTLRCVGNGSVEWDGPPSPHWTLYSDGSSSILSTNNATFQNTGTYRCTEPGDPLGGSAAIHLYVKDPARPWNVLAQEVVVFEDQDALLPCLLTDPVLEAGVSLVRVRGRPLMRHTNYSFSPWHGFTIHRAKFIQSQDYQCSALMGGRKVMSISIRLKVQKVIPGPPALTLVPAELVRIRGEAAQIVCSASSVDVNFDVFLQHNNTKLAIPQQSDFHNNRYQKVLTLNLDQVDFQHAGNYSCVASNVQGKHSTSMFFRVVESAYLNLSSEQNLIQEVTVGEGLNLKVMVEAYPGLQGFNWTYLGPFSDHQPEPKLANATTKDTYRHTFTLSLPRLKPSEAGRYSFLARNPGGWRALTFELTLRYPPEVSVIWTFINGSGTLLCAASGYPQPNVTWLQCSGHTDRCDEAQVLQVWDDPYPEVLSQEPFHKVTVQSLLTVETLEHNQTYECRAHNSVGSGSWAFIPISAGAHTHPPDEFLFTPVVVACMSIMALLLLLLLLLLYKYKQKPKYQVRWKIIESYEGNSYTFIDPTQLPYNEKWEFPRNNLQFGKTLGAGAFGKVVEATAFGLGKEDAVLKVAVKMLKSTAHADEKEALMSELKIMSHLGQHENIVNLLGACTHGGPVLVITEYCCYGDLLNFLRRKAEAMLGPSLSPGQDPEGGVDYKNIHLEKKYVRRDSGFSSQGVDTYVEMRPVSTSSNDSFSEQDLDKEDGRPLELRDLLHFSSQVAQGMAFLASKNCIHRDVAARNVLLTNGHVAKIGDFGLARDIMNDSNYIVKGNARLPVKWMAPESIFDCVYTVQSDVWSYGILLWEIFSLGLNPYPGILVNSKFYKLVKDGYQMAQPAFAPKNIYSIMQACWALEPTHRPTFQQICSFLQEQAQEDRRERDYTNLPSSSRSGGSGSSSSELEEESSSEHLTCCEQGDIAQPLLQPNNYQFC
From the text: The following Table 6 provides data indicating FLT3 ITD, D835Y and F691L; c-KIT and CSF1R biochemical and/or cell inhibitory activity for exemplary compounds as described herein.

Compound	IC50 [1]	IC50 (CSF1R)
COc1ncc(NC(=O)Cc2ccc(-c3cnc4[nH]nc(Cl)c4c3)cc2)cc1C(F)(F)F [Compound P-0230, 2-[4-(3-chloro-1H-pyrazolo[3,4-b]pyridin-5-yl)phenyl]-N-[6-methoxy-5-(trifluoromethyl)-3-pyridyl]acetamide]	0.0001 to 10 µM	0.0001 to 10 µM
COc1n[nH]c2ncc(-c3ccc(CC(=O)Nc4cnc(C)c(C(F)(F)F)c4)cc3)cc12 [Compound P-0218, 2-[4-(3-methoxy-1H-pyrazolo[3,4-b]pyridin-5-yl)phenyl]-N-[6-methyl-5-(trifluoromethyl)-3-pyridyl]acetamide]	0.0001 to 10 µM	0.0001 to 10 µM
COc1ncc(NC(=O)Cc2ccc(-c3cnc4[nH]nc(OC)c4c3)cc2)cc1C(F)(F)F [Compound P-0212, 2-[4-(3-methoxy-1H-pyrazolo[3,4-b]pyridin-5-yl)phenyl]-N-[6-methoxy-5-(trifluoromethyl)-3-pyridyl]acetamide]	0.0001 to 10 µM	0.0001 to 10 µM
COc1ncc(NC(=O)Cc2ccc(-c3cnc4[nH]nc(NC(=O)C(F)(F)F)c4c3)cc2)cc1C(F)(F)F [Compound P-0215, 2,2,2-trifluoro-N-[5-[4-[2-[[6-methoxy-5-(trifluoromethyl)-3-pyridyl]amino]-2-oxo-ethyl]phenyl]-1H-pyrazolo[3,4-b]pyridin-3-yl]acetamide]	0.0001 to 10 µM	0.0001 to 10 µM
CCOc1n[nH]c2ncc(-c3ccc(CC(=O)Nc4cnc(OC)c(C(F)(F)F)c4)cc3)cc12 [Compound P-0213, 2-(4-(3-ethoxy-1H-pyrazolo[3,4-b]pyridin-5-yl)phenyl)-N-(6-methoxy-5-(trifluoromethyl)pyridin-3-yl)acetamide]	0.0001 to 10 µM	0.0001 to 10 µM
O=C(Cc1ccc(-c2cnc(Nc3cnn(C(F)F)c3)nc2)cc1)Nc1cncc(C(F)(F)F)c1 [Compound P-0209, 2-[4-[2-[[1-(difluoromethyl)pyrazol-4-yl]amino]pyrimidin-5-yl]phenyl]-N-[5-(trifluoromethyl)-3-pyridyl]acetamide]	0.0001 to 10 µM	–
Cn1cc(Nc2ncc(-c3cc(F)c(CC(=O)Nc4cc(C(F)(F)F)ccn4)cc3F)cn2)cn1 [Compound P-0019, 2-[2,5-difluoro-4-[2-[(1-methylpyrazol-4-yl)amino]pyrimidin-5-yl]phenyl]-N-[4-(trifluoromethyl)-2-pyridyl]acetamide]	0.0001 to 10 µM	–
Cc1ncc(NC(=O)Cc2ccc(-c3cnc4[nH]c(C#CC(C)(C)O)cc4c3)cc2)cc1C(F)(F)F [Compound P-0220, 2-[4-[2-(3-hydroxy-3-methyl-but-1-ynyl)-1H-pyrrolo[2,3-b]pyridin-5-yl]phenyl]-N-[6-methyl-5-(trifluoromethyl)-3-pyridyl]acetamide]	0.0001 to 10 µM	0.0001 to 10 µM
COc1ncc(NC(=O)Cc2ccc(-c3cnc4[nH]nc(N)c4c3)cc2)cc1C(F)(F)F [Compound P-0216, 2-(4-(3-amino-1H-pyrazolo[3,4-b]pyridin-5-yl)phenyl)-N-(6-methoxy-5-(trifluoromethyl)pyridin-3-yl)acetamide]	0.0001 to 10 µM	0.0001 to 10 µM
O=C(Cc1ccc(-c2cnc(Nc3cnn(C4CC4)c3)nc2)cc1)Nc1cc(C(F)(F)F)ccn1 [Compound P-0237, 2-[4-[2-[(1-cyclopropylpyrazol-4-yl)amino]pyrimidin-5-yl]phenyl]-N-[4-(trifluoromethyl)-2-pyridyl]acetamide]	0.0001 to 10 µM	–
CCn1cc(Nc2ncc(-c3cc(F)c(CC(=O)Nc4cnc(C)c(C(F)(F)F)c4)cc3F)cn2)cn1 [Compound P-0249, 2-[4-[2-[(1-ethylpyrazol-4-yl)amino]pyrimidin-5-yl]-2,5-difluoro-phenyl]-N-[6-methyl-5-(trifluoromethyl)-3-pyridyl]acetamide]	0.0001 to 10 µM	–
COc1ncc(NC(=O)Cc2cc(F)c(-c3cnc(Nc4cnn(C)c4)nc3)cc2F)cc1C(F)(F)F [Compound P-0208, 2-[2,5-difluoro-4-[2-[(1-methylpyrazol-4-yl)amino]pyrimidin-5-yl]phenyl]-N-[6-methoxy-5-(trifluoromethyl)-3-pyridyl]acetamide]	0.0001 to 10 µM	–
O=C(Cc1ccc(-c2cnc(Nc3cnn(C4CC4)c3)nc2)cc1F)Nc1ccc(C(F)(F)F)cn1 [Compound P-0243, 2-[4-[2-[(1-cyclopropylpyrazol-4-yl)amino]pyrimidin-5-yl]-2-fluoro-phenyl]-N-[5-(trifluoromethyl)-2-pyridyl]acetamide]	0.0001 to 10 µM	–
CCn1cc(Nc2ncc(-c3ccc(CC(=O)Nc4cnc(C)c(C(F)(F)F)c4)cc3F)cn2)cn1 [Compound P-0248, 2-[4-[2-[(1-ethylpyrazol-4-yl)amino]pyrimidin-5-yl]-3-fluoro-phenyl]-N-[6-methyl-5-(trifluoromethyl)-3-pyridyl]acetamide]	0.0001 to 10 µM	–
COc1ncc(NC(=O)Cc2ccc(-c3cnc4[nH]c(-c5ccnc(C#N)c5)cc4c3)c(F)c2)cc1C(F)(F)F [Compound P-0016, 2-[4-[2-(2-cyano-4-pyridyl)-1H-pyrrolo[2,3-b]pyridin-5-yl]-3-fluoro-phenyl]-N-[6-methoxy-5-(trifluoromethyl)-3-pyridyl]acetamide]	0.0001 to 10 µM	–
COc1cc(-c2cc3cc(-c4ccc(CC(=O)Nc5cncc(C(F)(F)F)c5)cc4F)cnc3[nH]2)ccn1 [Compound P-0200, 2-(3-fluoro-4-(2-(2-methoxypyridin-4-yl)-1H-pyrrolo[2,3-b]pyridin-5-yl)phenyl)-N-(5-(trifluoromethyl)pyridin-3-yl)acetamide]	0.0001 to 10 µM	–
CCOc1n[nH]c2ncc(-c3ccc(CC(=O)Nc4cnc(C)c(C(F)(F)F)c4)cc3)cc12 [Compound P-0217, 2-[4-(3-ethoxy-1H-pyrazolo[3,4-b]pyridin-5-yl)phenyl]-N-[6-methyl-5-(trifluoromethyl)-3-pyridyl]acetamide]	0.0001 to 10 µM	0.0001 to 10 µM
